Read-outs that look alike come from different tables or passages of the source.
How the values were obtained:
[1] = not given; remark: listed apart in the source
mock HEK-293 cells = test: Passive diffusion in mock HEK-293 cells; type: in vitro ADME, human
[2] = BCS classification stated in the discussion
human renal 11β-HSD2 = target: T1, human renal 11β-HSD2 (Homo sapiens, UniProt P80365); type: biochemical; conditions: read-out: Km for human 11β-HSD2
T1 sequence (P80365 1-405): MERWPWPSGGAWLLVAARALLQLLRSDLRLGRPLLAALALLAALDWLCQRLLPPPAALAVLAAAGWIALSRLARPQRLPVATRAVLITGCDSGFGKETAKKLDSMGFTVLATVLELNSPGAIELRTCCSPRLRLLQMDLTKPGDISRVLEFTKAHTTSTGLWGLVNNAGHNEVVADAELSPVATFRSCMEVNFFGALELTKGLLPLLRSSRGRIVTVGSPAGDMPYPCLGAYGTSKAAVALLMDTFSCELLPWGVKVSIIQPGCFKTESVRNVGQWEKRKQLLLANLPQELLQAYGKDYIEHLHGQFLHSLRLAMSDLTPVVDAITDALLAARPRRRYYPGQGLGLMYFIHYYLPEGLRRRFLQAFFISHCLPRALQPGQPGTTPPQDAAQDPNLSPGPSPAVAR

[3] = after orally dosing LianhuaQingwen, 12 capsules/person

**Q.** For “22α-hydroxyglycyrrhetic acid-3-O-sulfate”, which “Detection in rat plasma or urine samples” value (rat, in vivo, po) is on record?
**A.** The value was “not detected”.

**Q.** What about the “Detection in human plasma and urine samples” value ([1]; in vivo, po) of the same compound?
**A.** The value was “not detected”.

**Q.** Which “Detection in rat plasma or urine samples” value (rat, in vivo, po) does the source give for `CC1(C(=O)OC2OC(C(=O)O)C(O)C(O)C2O)CC(O)C2(C)CCC3(C)C(=CC(=O)C4C5(C)CCC(OS(=O)(=O)O)C(C)(C)C5CCC43C)C2C1` (stereo not drawn) [22α-hydroxyglycyrrhetic acid-3-O-sulfate-30-O-glucuronide] here?
**A.** Its value is “not detected”.

**Q.** What about the “Detection in human plasma and urine samples” value ([1]; in vivo, po) of the same compound?
**A.** The value was “not detected”.

**Q.** What does the source list for `CC1(C)[C@@H](O[C@H]2O[C@H](C(=O)O)[C@@H](O)[C@H](O)[C@H]2O[C@@H]2O[C@H](C(=O)O)[C@@H](O)[C@H](O)[C@H]2O)CC[C@]2(C)[C@H]3C(=O)C=C4[C@@H]5C[C@@](C)(C(=O)O)CC[C@]5(C)CC[C@@]4(C)[C@]3(C)CC[C@@H]12` [Compound 1, Glycyrrhizin]?
**A.** Presence in rat samples (rat, in vivo, po): Plasma, bile, urine, feces; Presence in human samples ([1]; in vivo, po): Plasma, urine, feces; transport rate, membrane permeation in mock cells (mock HEK-293 cells): < 5 pmol·min^−1·mg^−1 protein; BCS Class [2]: BCS Class III

**Q.** Which “Presence in rat samples” value (rat, in vivo, po) does the source give for `CC1(C)[C@@H](O[C@@H]2O[C@H](C(=O)O)[C@@H](O)[C@H](O)[C@H]2O[C@@H]2O[C@H](C(=O)O)[C@@H](O)[C@H](O)[C@H]2O)CC[C@]2(C)[C@H]3C(=O)C=C4[C@@H]5C[C@](C)(C(=O)O)CC[C@]5(C)CC[C@@]4(C)[C@]3(C)CC[C@@H]12` [Compound 3, Licorice saponin H2] here?
**A.** Its value is “Plasma, bile, urine, feces”.

**Q.** What does the source list for `O=C1C[C@@H](c2ccc(O[C@@H]3O[C@H](CO)[C@@H](O)[C@H](O)[C@H]3O)cc2)Oc2cc(O)ccc21` [Compound 21, Liquiritin]?
**A.** Presence in rat samples (rat, in vivo, po): Plasma, bile, urine, feces; Presence in human samples ([1]; in vivo, po): Plasma, urine; transport rate, membrane permeation in mock cells (mock HEK-293 cells; human, 10 min, 50 µmol/L): < 5 pmol·min^−1·mg^−1 protein; BCS Class [2]: BCS Class III

**Q.** Which results are given for `O=C(/C=C/c1ccc(O[C@@H]2O[C@H](CO)[C@@H](O)[C@H](O)[C@H]2O)cc1)c1ccc(O)cc1O` [Compound 24, Isoliquiritin]?
**A.** Presence in rat samples (after orally dosing LianhuaQingwen, 3.78 g/kg): Plasma, bile, urine, feces; Presence in human samples [1, 3]: Plasma, urine

**Q.** For `O=C(/C=C/c1ccc(O)cc1)c1ccc(O)cc1O` [Compound 26, Isoliquiritigenin], which “Presence in human samples” value [1, 3] is on record?
**A.** Its value is “Plasma, urine, feces”.

**Q.** For `O=C(CCc1ccc(O)cc1)c1ccc(O)cc1O` [Compound M27R, Davidigenin], which “Presence in human samples” value ([1]; in vivo, po) is on record?
**A.** Its value is “Urine”.

**Q.** With `C[C@]12CCC(=O)C=C1CC[C@@H]1[C@@H]2[C@@H](O)C[C@@]2(C)[C@H]1CC[C@]2(O)C(=O)CO` [cortisol] as the compound, how does the Km (human renal 11β-HSD2) read?
**A.** The Km was 0.045 µM.
